Consider two molecules from paper PMC3372625 (Journal of Controlled Release, 2012).

Series [1] deals with cells. Conditions: cited from earlier work.
Series [2] has as its system H9C2 cells. Description: Cell viability. It counts as cell-based. Conditions: in the presence of CoCl2; figure 2c.
Series [3] concerns H9C2 cells. Description: Reactive oxygen species. It counts as cell-based. Particulars: various concentrations of CoCl2; figure 2b.

Regarding Branched poly(ethylenimine) [PEI], the cytotoxicity result in series [1] is on record as “less than 10%”.

With `[Cl][Co][Cl]` [CoCl2, cobalt chloride], the “CoCl2 toxicity (cell viability)” value in series [2] was “no artifact caused by CoCl2 toxicity”. Further, the “generation of ROS” value in series [3] is “dependent on the concentration of CoCl2 up to 25 μmol”.
